From the supplement of paper PMC10307832

Experiments:
Assay in all cases: relative viability (nuclei count vs DMSO), 5 days (fraction); higher = more cells survive
[1] = compound: O=C(/C=C/c1cccnc1)NCCCCC1CCN(C(=O)c2ccccc2)CC1 [Daporinad] + CC(=O)c1c(C)c2cnc(Nc3ccc(N4CCNCC4)cn3)nc2n(C2CCCC2)c1=O [Palbociclib] (partner 0.5 µM)
Summary of the method: (§1)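 Relative viability was taken as the ratio of nuclei in treated wells to nuclei in vehicle wells. Lung cancer cell lines in 1536-well plates received compounds by pin tool one day after seeding, either one drug alone or a fixed anchor-drug dose plus five library-drug doses (not always all listed) in √10 steps. Nuclei were counted on 4× images after 5 days of treatment, and values are medians of duplicate plates.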

[2] = compound: O=C(/C=C/c1cccnc1)NCCCCC1CCN(C(=O)c2ccccc2)CC1 [Daporinad] + N=C(N)NC(=N)NCCc1ccccc1 [Phenformin] (partner 250 µM)
Summary of the method: as §1

[3] = compound: COc1cc(Nc2ncc(F)c(Nc3ccc4c(n3)NC(=O)C(C)(C)O4)n2)cc(OC)c1OC [R406] + CS(=O)(=O)CCNCc1ccc(-c2ccc3ncnc(Nc4ccc(OCc5cccc(F)c5)c(Cl)c4)c3c2)o1 [Lapatinib] (partner 2 µM)
Summary of the method: as §1

[4] = compound: O=C(/C=C/c1cccnc1)NCCCCC1CCN(C(=O)c2ccccc2)CC1 [Daporinad] + CCNC(=O)c1noc(-c2cc(C(C)C)c(O)cc2O)c1-c1ccc(CN2CCOCC2)cc1 [Luminespib] (partner 0.01 µM)
Summary of the method: as §1

Cell Line	relative viability ([1]; first compound 0.0005 µM)	relative viability ([1]; first compound 0.001581 µM)	relative viability ([1]; first compound 0.005 µM)	relative viability ([1]; first compound 0.01581 µM)	relative viability ([2]; first compound 0.0005 µM)	relative viability ([2]; first compound 0.001581 µM)	relative viability ([2]; first compound 0.005 µM)	relative viability ([2]; first compound 0.01581 µM)	relative viability ([3]; first compound 0.08 µM)	relative viability ([3]; first compound 0.253 µM)	relative viability ([3]; first compound 0.8 µM)	relative viability ([3]; first compound 2.53 µM)	relative viability ([3]; first compound 8 µM)	relative viability ([4]; first compound 0.0005 µM)	relative viability ([4]; first compound 0.001581 µM)	relative viability ([4]; first compound 0.005 µM)	relative viability ([4]; first compound 0.01581 µM)
201T	0.379	0.347	0.329	0.375	0.423	0.456	0.499	0.463	0.868	1.06	1.02	0.95	0.905	1.04	1.02	1.12	1.11
A549					0.216	0.253	0.133	0.156	0.882	1.04	1.1	0.545	0.215				
A-427	0.475	0.533	0.487	0.473	0.298	0.356	0.295	0.191	0.922	1.14	1.17	0.958	0.801	0.959	0.953	0.742	0.671
ABC-1	0.87	0.558	0.793	0.904	0.257	0.244	0.285	0.285	0.85	1.07	1.09	0.875	0.705	0.524	0.583	0.527	0.498
BEN	0.528	0.459	0.433	0.599	0.289	0.237	0.261	0.292	0.627	0.75	0.735	0.791	0.602	0.356	0.559	0.456	0.437
CAL-12T	0.332	0.445	0.342	0.143	0.523	0.613	0.296	0.188	0.697	0.698	0.775	0.638	0.288	0.17	0.41	0.545	0.193
COR-L23	0.302	0.362	0.278	0.191	0.422	0.463	0.317	0.194	1.02	1.09	1.49	1.05	0.47	0.615	0.696	0.734	0.199
COR-L 105	0.395	0.401	0.37	0.44	0.491	0.485	0.545	0.607	0.359	0.391	0.364	0.276	0.292	0.807	0.805	0.82	0.738
Calu-6									1.02	1.25	1.09	0.745	0.476				
ChaGo-K-1	0.914	0.908	0.786	0.327	0.513	0.532	0.434	0.274						0.529	0.508	0.425	0.414
EBC-1									0.22	0.226	0.216	0.233	0.197				
EKVX	0.435	0.379	0.423	0.465	0.212	0.23	0.251	0.227	0.247	0.239	0.18	0.104	0.176	0.889	0.933	0.839	0.922
EMC-BAC-2	0.513	0.546	0.41	0.327	0.57	0.631	0.417	0.298	0.888	0.963	0.93	0.921	0.806	1.19	1.22	1.25	0.331
EPLC-272H	0.338	0.307	0.697	0.351	0.265	0.299	0.373	0.368	0.888	0.924	1.1	0.442	0.228	0.237	0.433	0.388	0.393
H3255	0.308	0.322	0.344	0.33	0.355	0.341	0.379	0.424	0.257	0.264	0.249	0.235	0.233	0.832	0.995	0.929	1.1
HARA	0.258	0.263	0.308	0.238	0.412	0.397	0.426	0.114	0.743	0.672	0.775	0.55	0.157	0.761	0.621	0.837	0.175
HCC-15	0.692	0.815	0.829	0.755	0.421	0.617	0.567	0.586	0.822	1.02	0.94		0.687	0.309	0.446	0.372	0.329
HCC-44	0.97	0.988	1.04	0.963	0.255	0.189	0.233	0.182	0.899	1.08	1.12	0.624	0.619	1.07	1.12	0.942	1.28
HCC-78	0.449	0.466	0.522	0.497	0.619		0.839	0.819	0.673	0.919	0.888	0.649	0.354				
HCC-366	0.451		0.432	0.37	0.565	0.584	0.633	0.606	0.908	1.15	1.17		0.356				
HCC-827	0.419	0.486	0.5	0.435	0.442	0.478	0.421	0.461	0.163	0.21	0.186	0.169	0.17	0.639	0.747	0.704	0.732
